Laboratory results: PMC7278359, “Small molecule AX-024 reduces T cell proliferation independently of CD3ϵ/Nck1 interaction, which is governed by a domain swap in the Nck1-SH3.1 domain” (The Journal of Biological Chemistry, 2020)
“Also recorded” adds a separate entry of the source.

Tests used:
Nck1-SH3.1 [1] = molecular target: T1, Nck1-SH3.1 (Homo sapiens, UniProt P16333); test: SPR binding to immobilized Nck1-SH3.1; conditions: AX-024 up to 100 μM; 1260 RU; 20 °C, pH 7.8
T1 construct: His10-Avi-TEV-Nck1-SH3.1 (residues 1–61, MM 11,847 Da) was biotinylated and immobilized via streptavidin; made in house; host or cells: Escherichia coli BL21 (DE3)
Method: SPR experiments were conducted on a T200 Biacore instrument (GE Healthcare, Uppsala, Sweden) at 20 °C in 10 mM HEPES/NaOH, pH 7.8, 150 mM NaCl, 1 mM TCEP. […] Streptavidin is immobilized on the CAP sensor by way of double-strand DNA formation. A ssDNA is covalently coupled to the sensor surface, and a complementary DNA strand, covalently linked to streptavidin, is hybridized. To regenerate the surface, the DNA duplex is dissociated by washing with high-ionic strength solution. […] The reference channel for binding studies contained the same streptavidin-coated surface blocked with biotin.
Five replicates were performed for each CD3ϵ concentration (Table S1), whereas for the qualitative assessment of the APVA variant, only a single titration was performed.
SPR equilibrium signals were corrected for the signal in the reference channel and buffer contributions. The resulting SPR amplitudes were plotted as a function of peptide concentration, and a simple binding equation describing a Langmuir adsorption isotherm was fit to the data (GraphPad Prism) to extract the equilibrium dissociation constant Kd. (Eq. 1) RU=RUmax·[peptide]/[peptide]+Kd

CD4 T cell proliferation = CD4 T cell proliferation by CFSE dilution, anti-CD3 stimulation; type: cell-based, human; conditions: human CD3+ T cells (n = 4 donors), CFSE dilution gated on CD4, 0.2 μg·ml^−1 plate-bound anti-CD3 (OKT3), no co-stimulation, 4 days, 0.2% DMSO
Method: Figure 2. […] CD4 T cell proliferation was assessed upon stimulation with anti-CD3ϵ by CFSE dilution as a measure for cellular proliferation, analyzed on day 4. For rapamycin and AX-024–treated cells, the dashed line indicates control proliferation at a DMSO concentration of 0.2%. For CD3ϵ-derived peptides 11Rwt, 11R085, and 11Rscr, the dashed line indicates control proliferation at 0.3% DMSO, 0.3% PBS. 11Rwt has sequence R11-G3-[…], 11R085 R11-G3-Q(dK)[…], and 11Rscr R11-G3-[…](dK)PQP. A polyarginine tag is used to enable cell penetration of the peptides ([10]). The gray boxes indicate concentrations of compound leading to decreased cell viability. These values should be disregarded. Binding of peptides 11Rwt and 11R085, but not 11Rscr, to Nck-SH3.1 was confirmed by NMR spectroscopy (Fig. S1). Asterisks, p < 0.05 as determined by a repeated-measure one-way analysis of variance with Holm–Sidak's multiple-comparison test to DMSO/PBS. Dotted lines, mean DMSO/PBS values. Error bars, S.D.
Fresh human peripheral blood mononuclear cells (PBMCs) from healthy donors (n = 4) were prepared from buffy coats. CD3^+ T cells were isolated by immunomagnetic separation (negative selection, StemCell, lot 18A87710), carboxyfluorescein succinimidyl ester (CFSE)-labeled, resuspended in StemCell Immunocult^TM-XF T cell expansion medium, and treated with compounds or vehicle for 2 h at room temperature. The isolated CD3^+ T cells were stained for CD3, CD4, and CD8, and their purity was assessed by flow cytometry. Cells were then cultured in a 96-well flat-bottomed plate (10^5 cells/well), precoated for 1 h at 37 °C with 0.2 μg·ml^−1 plate-bound anti-CD3 (clone OKT3, BioLegend). […] Cells were cultured in the presence of AX-024, rapamycin, peptide 11Rwt, peptide 11R85, peptide 11Rscr (derived from Ref. [11]; see below for sequences), or vehicle for 4 days. At the end of culture, cells were stained for viability, and CFSE dilution was assessed by flow cytometry (with gating on CD4 versus CD8).

[2] = test system: P-Zap70 in primary T cells; test: Zap70 phosphorylation in primary T cells, flow cytometry; type: cell-based, human
Method: Figure 4. […] Healthy donor PBMCs were isolated rested overnight and pretreated with 20 μM AX-024 or vehicle prior to stimulation with 20 μg·ml^−1 (A) or 10 μg·ml^−1 (B) anti-CD3. The cells were gated on live cells, CD3, and CD4 for assessment of P-Zap70. Error bars, S.D.
Human PBMCs from healthy donors were prepared from 50 ml of fresh blood with Ficoll in Leucosep tubes. The tubes were centrifuged at room temperature (30 min, 800 × g) without brake. Isolated cells were washed and staved overnight. The cells were treated with AX-024 or vehicle and incubated for 1 h at 37 °C followed by further incubation on ice. 10, 25, or 50 μg·ml^−1 anti-CD3-biotin (clone OKT3, BioLegend) was added to the cells on ice for 15 min before neutravidin was added at a final concentration of 20 μg·ml^−1 for cross-linking. After stimulation for 3 min at 37 °C, cells were fixed (BD Cytofix fixation buffer) and permeabilized (TruePhos buffer, BioLegend). Staining was performed with CD3-PerCP (clone SK7, BD), CD4-BUV395 (clone SK3, BD), CD8-BV605 (clone RPAT8, BioLegend), and Zap70-PE (clone 65E4, CST). Flow cytometry and data analysis were done as described above.

[3] = test system: Zap70 phosphorylation in anti-CD3–stimulated T cells; conditions: ref [10]; cited from earlier work
Method: It was shown previously that Nck contributes to TCR signaling after weak stimulation of T cells. […] To obtain a strong dependence of TCR signaling on Nck, different stimulation conditions with low concentrations of anti-CD3 in the absence of co-stimulatory signals were assessed in the presence of AX-024 (Fig. 4). […] At the outset of this study, further development of AX-024, published as a PPI of the Nck1/CD3ϵ interaction ([10]), was anticipated. Unfortunately, we could not replicate all biological effects attributed to this compound. […] Whereas there is an inhibitory effect of AX-024 on T cell proli ...

T cell proliferation = conditions: response to weak antigens; ref [10]; cited from earlier work
Description: (§1) The objective of the present study was to initiate development of an inhibitor of the Nck/TCR interaction, specifically by blocking binding of the first SH3 domain in Nck (Nck1-SH3.1) to the PRS in the CD3ϵ subunit of the TCR.

Nck1-SH3.1 [4] = conditions: in vitro; ref [10]; cited from earlier work
Description: as §1

With `COc1ccc2c(c1)C(c1ccc(F)cc1)=C(CN1CCCC1)CO2.Cl` [AX-024, 1-((4-(4-fluorophenyl)-6-methoxy-2H-chromen-3-yl)methyl)pyrrolidine hydrochloride] the “direct binding to immobilized Nck1-SH3.1 by SPR” value (Nck1-SH3.1 [1]) was “does not bind to Nck1-SH3.1; also recorded: no direct binding of AX-024 to immobilized Nck1-SH3.1 was detectable”, the “inhibition of T cell proliferation” value (CD4 T cell proliferation) was “inhibited T cell proliferation” and the “reduction of Zap70 phosphorylation” value ([2]; PBMCs from healthy donors, 20 μM AX-024 pretreatment, 20 or 10 μg·ml^−1 anti-CD3, gated on live, CD3, CD4) was “does not significantly reduce Zap70 phosphorylation”. The “reduction of Zap70 phosphorylation” value ([2]; different stimulation conditions, low anti-CD3, no co-stimulation) was “none of the conditions tested resulted in significant reduction of Zap70 phosphorylation”, the “reduction of Zap70 phosphorylation” value [3] was “reduces Zap70 phosphorylation to the same level as in unstimulated T cells; also recorded: reduces ZAP70 phosphorylation in anti-CD3–stimulated T cells to levels comparable with unstimulated T cells” and the “inhibition of T cell proliferation” value (T cell proliferation) was “inhibit T cell proliferation specifically in response to weak antigens”. The “physical interaction with Nck1-SH3.1 (SPR and NMR)” value (Nck1-SH3.1 [4]) was “appeared to support physical interaction of AX-024 with the Nck1-SH3.1 domain”.
